The text below walks through data of the supplement of paper PMC10920090.

In test [1] the test system is MDA-MB-231. As to the kind of experiment: drug sensitivity score (DSS), cytotoxicity CellTox Green; higher = more cytotoxic; extreme values may be limits of the assay. The note with it: 72 h.
Test [2] has as its system MDA-MB-231. As to the kind of experiment: drug sensitivity score (DSS), cell viability CellTiter-Glo; higher = more sensitive; extreme values may be limits of the assay. The note with it: 72 h.
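For drug sensitivity score (DSS), cytotoxicity CellTox Green in this document: DSS summarises each dose–response curve by combining IC50, EC50, maximal inhibition and efficacy across drug concentrations.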

Take `O=C(Nc1cc(Cl)cc2c1[nH]c1cnccc12)c1cccnc1` [PS-1145]: the drug sensitivity score in test [1] (shRNA: shPPFIA1_1) is 0 DSS; in test [1] (shRNA: shScramble), 0.3 DSS; in test [2] (shRNA: shPPFIA1_1) it was 0.9 DSS; in test [2] (shRNA: shScramble), 0.9 DSS.
In the case of `C=C1C[C@@H]2[C@H](CC[C@]3(C)C(=O)CC[C@@H]23)[C@@]2(C)C=CC(=O)C=C12` [Exemestane], the drug sensitivity score amounted to 0 DSS in test [1] (shRNA: shPPFIA1_1), 0 DSS in test [1] (shRNA: shScramble), 0 DSS in test [2] (shRNA: shPPFIA1_1) and 1.4 DSS in test [2] (shRNA: shScramble).
`N[C@@H]1CCCN(c2c(/C=C3\SC(=O)NC3=O)cccc2-c2ccccc2)C1` [AZD1208]: the drug sensitivity score in test [1] (shRNA: shPPFIA1_1), in test [1] (shRNA: shScramble), in test [2] (shRNA: shPPFIA1_1) and in test [2] (shRNA: shScramble) was 0 DSS in each case.
Take `CN(C[C@@H]1COCCO1)S(=O)(=O)Nc1ccc2ccc3ncc(-c4cnn(C)c4)cc3c(=O)c2c1` [MK-2461]: the drug sensitivity score in test [1] (shRNA: shPPFIA1_1) was 0 DSS; in test [1] (shRNA: shScramble) it was 0 DSS; in test [2] (shRNA: shPPFIA1_1), 0 DSS; in test [2] (shRNA: shScramble), 3.6 DSS.
With `Cc1cccc(-c2nn3c(c2-c2ccnc4ccc(C(N)=O)cc24)CCC3)n1` [Galunisertib], the drug sensitivity score in test [1] (shRNA: shPPFIA1_1), in test [1] (shRNA: shScramble), in test [2] (shRNA: shPPFIA1_1) and in test [2] (shRNA: shScramble) was 0 DSS in each case.
As to `COc1cc(Nc2ncc(F)c(Nc3ccc4c(n3)NC(=O)C(C)(C)O4)n2)cc(OC)c1OC` [Tamatinib], the drug sensitivity score was determined as 0.2 DSS in test [1] (shRNA: shPPFIA1_1), 0 DSS in test [1] (shRNA: shScramble), 0 DSS in test [2] (shRNA: shPPFIA1_1) and 1.8 DSS in test [2] (shRNA: shScramble).
On to `O=C1CN2Cc3c(ccc(Cl)c3Cl)N=C2N1` [Anagrelide], for which the drug sensitivity score in test [1] (shRNA: shPPFIA1_1), in test [1] (shRNA: shScramble), in test [2] (shRNA: shPPFIA1_1) and in test [2] (shRNA: shScramble) was 0 DSS throughout.
Take `C[C@@H](Nc1cc(F)cc(F)c1)c1cc(C(=O)N(C)C)cc2c(=O)cc(N3CCOCC3)oc12` [AZD-8186]: the drug sensitivity score in test [1] (shRNA: shPPFIA1_1) is 0 DSS; in test [1] (shRNA: shScramble), 0 DSS; in test [2] (shRNA: shPPFIA1_1), 0 DSS; in test [2] (shRNA: shScramble), 1.7 DSS.
For the compound `COc1ccc(Cn2ccc3ccc(C(=O)NO)cc32)cc1`, the drug sensitivity score in test [1] (shRNA: shPPFIA1_1) stood at 10.5 DSS; in test [1] (shRNA: shScramble) it was 0 DSS; in test [2] (shRNA: shPPFIA1_1), 0 DSS; in test [2] (shRNA: shScramble), 0 DSS.
As for `CCNC(=O)Nc1ccc(-c2nc3c(c(N4CCOC[C@@H]4C)n2)CCN(C2COC2)C3)cc1` [RG-7603], the drug sensitivity score in test [1] (shRNA: shPPFIA1_1) turned out to be 0 DSS; in test [1] (shRNA: shScramble) it was 0 DSS; in test [2] (shRNA: shPPFIA1_1), 0 DSS; in test [2] (shRNA: shScramble), 2.7 DSS.
Consider `Cc1cc(Nc2cc(N3CCN(C)CC3)nc(Sc3ccc(NC(=O)C4CC4)cc3)n2)n[nH]1` [Tozasertib], for which the drug sensitivity score was 1.6 DSS in test [1] (shRNA: shPPFIA1_1), 0.3 DSS in test [1] (shRNA: shScramble), 0 DSS in test [2] (shRNA: shPPFIA1_1) and 3 DSS in test [2] (shRNA: shScramble).
Taken in the same sequence, the figures for `CC(C)C(=O)Nc1ccc([N+](=O)[O-])c(C(F)(F)F)c1` [Flutamide] were 0 DSS, 0 DSS, 0 DSS and 0.3 DSS.
Taken in the same sequence, the figures for `CC1=C(/C=C/C(C)=C/C=C/C(C)=C/C(=O)O)C(C)(C)CCC1` [Tretinoin] were 0 DSS, 0 DSS, 0 DSS and 0 DSS.
For `CN1CCN(c2ccc3nc(-c4c(N)c5c(F)cccc5[nH]c4=O)[nH]c3c2)CC1` [Dovitinib] the same measures were 0 DSS, 0 DSS, 0 DSS and 0 DSS.
As to `CC(C)C[C@H](NC(=O)[C@@H](COC(C)(C)C)NC(=O)[C@H](Cc1ccc(O)cc1)NC(=O)[C@H](CO)NC(=O)[C@H](Cc1c[nH]c2ccccc12)NC(=O)[C@H](Cc1cnc[nH]1)NC(=O)[C@@H]1CCC(=O)N1)C(=O)N[C@@H](CCCNC(=N)N)C(=O)N1CCC[C@H]1C(=O)NNC(N)=O` [Goserelin], the drug sensitivity score in test [1] (shRNA: shPPFIA1_1), in test [1] (shRNA: shScramble), in test [2] (shRNA: shPPFIA1_1) and in test [2] (shRNA: shScramble) was 0 DSS in each case.
Regarding `CCN(CC)C(=S)SSC(=S)N(CC)CC` [Disulfiram], the drug sensitivity score is 6.4 DSS in test [1] (shRNA: shPPFIA1_1), 7 DSS in test [1] (shRNA: shScramble), 6.5 DSS in test [2] (shRNA: shPPFIA1_1) and 14.3 DSS in test [2] (shRNA: shScramble).
Regarding `CNC(=O)c1ccc(C)c(-n2c(C)cc(OCc3ccc(F)cc3F)c(Br)c2=O)c1`, the drug sensitivity score in test [1] (shRNA: shPPFIA1_1), in test [1] (shRNA: shScramble), in test [2] (shRNA: shPPFIA1_1) and in test [2] (shRNA: shScramble) was 0 DSS each time.
As for `CC1(C)CCC(CN2CCN(c3ccc(C(=O)NS(=O)(=O)c4ccc(NCC5CCOCC5)c([N+](=O)[O-])c4)c(Oc4cnc5[nH]ccc5c4)c3)CC2)=C(c2ccc(Cl)cc2)C1` [Venetoclax], the drug sensitivity score in test [1] (shRNA: shPPFIA1_1), in test [1] (shRNA: shScramble), in test [2] (shRNA: shPPFIA1_1) and in test [2] (shRNA: shScramble) was 0 DSS each time.
`CC(C)[C@@H](CS(=O)(=O)C(C)C)N1C(=O)[C@@](C)(CC(=O)O)C[C@H](c2cccc(Cl)c2)[C@H]1c1ccc(Cl)cc1` [AMG-232]: the drug sensitivity score worked out at 12.7 DSS in test [1] (shRNA: shPPFIA1_1), 0 DSS in test [1] (shRNA: shScramble), 0 DSS in test [2] (shRNA: shPPFIA1_1) and 0 DSS in test [2] (shRNA: shScramble).
Take `CCN(CC)Cc1ccc2cc(COC(=O)Nc3ccc(C(=O)NO)cc3)ccc2c1` [Givinostat]: the drug sensitivity score was 2.4 DSS in test [1] (shRNA: shPPFIA1_1), 3.4 DSS in test [1] (shRNA: shScramble), 0.9 DSS in test [2] (shRNA: shPPFIA1_1) and 4 DSS in test [2] (shRNA: shScramble).
Taken in the same sequence, the figures for `CCCOc1ccn2c(C(C)=O)cc(-c3ccccc3S(C)(=O)=O)c2c1` [GSK2801] were 0 DSS, 0 DSS, 0 DSS and 0 DSS.
In the case of `O=C(O)C1(C(=O)O)CCC1.[NH2-].[NH2-].[Pt+2]` [Carboplatin], the drug sensitivity score in test [1] (shRNA: shPPFIA1_1), in test [1] (shRNA: shScramble), in test [2] (shRNA: shPPFIA1_1) and in test [2] (shRNA: shScramble) was 0 DSS throughout.
Take `CC(=O)O[C@H]1C(=O)[C@@]2(C)[C@H]([C@H](OC(=O)c3ccccc3)[C@]3(O)C[C@H](OC(=O)[C@H](O)[C@@H](NC(=O)c4ccccc4)c4ccccc4)C(C)=C1C3(C)C)[C@]1(OC(C)=O)CO[C@@H]1C[C@@H]2O` [Paclitaxel]: the drug sensitivity score is 8.8 DSS in test [1] (shRNA: shPPFIA1_1), 9.2 DSS in test [1] (shRNA: shScramble), 0 DSS in test [2] (shRNA: shPPFIA1_1) and 12.8 DSS in test [2] (shRNA: shScramble).
Consider `O=C(O)c1ccc(Nc2ncc3c(n2)-c2ccc(Cl)cc2C(c2c(F)cccc2F)=NC3)cc1` [MLN-8054], for which the drug sensitivity score in test [1] (shRNA: shPPFIA1_1) was 0 DSS; in test [1] (shRNA: shScramble), 0 DSS; in test [2] (shRNA: shPPFIA1_1) it was 0.1 DSS; in test [2] (shRNA: shScramble), 2.2 DSS.
`COC1=CC(c2cc3ccccc3[nH]2)=N/C1=C\c1[nH]c(C)cc1C` [Obatoclax]: the drug sensitivity score in test [1] (shRNA: shPPFIA1_1), in test [1] (shRNA: shScramble), in test [2] (shRNA: shPPFIA1_1) and in test [2] (shRNA: shScramble) was 0 DSS each time.
Turning to `Clc1ccc(Nc2nnc(Cc3ccncc3)c3ccccc23)cc1` [Vatalanib], the drug sensitivity score in test [1] (shRNA: shPPFIA1_1), in test [1] (shRNA: shScramble), in test [2] (shRNA: shPPFIA1_1) and in test [2] (shRNA: shScramble) was 0 DSS each time.
Turning to `C[C@]1(c2nc3c(C(N)=O)cccc3[nH]2)CCCN1` [Veliparib], the drug sensitivity score in test [1] (shRNA: shPPFIA1_1), in test [1] (shRNA: shScramble), in test [2] (shRNA: shPPFIA1_1) and in test [2] (shRNA: shScramble) was 0 DSS in each case.
Take `CCN(CC)CCCC(C)Nc1c2ccc(Cl)cc2nc2ccc(OC)cc12` (stereo not drawn) [Mepacrine]: the drug sensitivity score in test [1] (shRNA: shPPFIA1_1) amounted to 18.5 DSS; in test [1] (shRNA: shScramble), 18.6 DSS; in test [2] (shRNA: shPPFIA1_1) it was 18.6 DSS; in test [2] (shRNA: shScramble) it was 21.1 DSS.
With `Nc1ncn([C@@H]2O[C@H](CO)[C@@H](O)[C@H]2O)c(=O)n1` [Azacitidine], the drug sensitivity score worked out at 0 DSS in test [1] (shRNA: shPPFIA1_1), 0 DSS in test [1] (shRNA: shScramble), 0 DSS in test [2] (shRNA: shPPFIA1_1) and 1.1 DSS in test [2] (shRNA: shScramble).
`O=C(/C=C/c1cccnc1)NCCCCC1CCN(C(=O)c2ccccc2)CC1` [Daporinad]: the drug sensitivity score was determined as 0 DSS in test [1] (shRNA: shPPFIA1_1), 0 DSS in test [1] (shRNA: shScramble), 24.6 DSS in test [2] (shRNA: shPPFIA1_1) and 26.8 DSS in test [2] (shRNA: shScramble).
With `Nc1ccccc1NC(=O)c1ccc(CNc2nccc(-c3cccnc3)n2)cc1` [Mocetinostat], the drug sensitivity score was determined as 10.5 DSS in test [1] (shRNA: shPPFIA1_1), 4.8 DSS in test [1] (shRNA: shScramble), 3.6 DSS in test [2] (shRNA: shPPFIA1_1) and 8.3 DSS in test [2] (shRNA: shScramble).
Taken in the same sequence, the figures for `CC[C@H](Nc1ncnc2[nH]cnc12)c1nc2cccc(F)c2c(=O)n1-c1ccccc1` [Idelalisib] were 0 DSS, 0 DSS, 0 DSS and 0.9 DSS.
